How the values were obtained:
Assay in all cases: relative viability (nuclei count vs DMSO), 5 days (fraction); higher = more cells survive
[1] = compound: C/C(=N\NC(=S)N1CCC1)/C2=CC=CC=N2 + CC(=O)c1c(C)c2cnc(Nc3ccc(N4CCNCC4)cn3)nc2n(C2CCCC2)c1=O [Palbociclib] (partner 0.5 µM)
How it was run: (§1)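 Each reported value is a median over duplicate plates. It expresses relative viability: treated-well nuclei count divided by vehicle-well nuclei count. Lung cancer cell lines in 1536-well plates were dosed by pin tool a day after seeding, alone with one drug or with a fixed anchor-drug dose plus five library-drug doses (not always all listed) in √10 steps, and nuclei were counted after 5 days.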

[2] = compound: C/C(=N\NC(=S)N1CCC1)/C2=CC=CC=N2 + Cc1nc(Nc2ncc(C(=O)Nc3c(C)cccc3Cl)s2)cc(N2CCN(CCO)CC2)n1 [Dasatinib] (partner 0.075 µM)
How it was run: as §1

[3] = compound: C/C(=N\NC(=S)N1CCC1)/C2=CC=CC=N2 + CCNC(=O)c1noc(-c2cc(C(C)C)c(O)cc2O)c1-c1ccc(CN2CCOCC2)cc1 [Luminespib] (partner 0.01 µM)
How it was run: as §1

[4] = compound: C/C(=N\NC(=S)N1CCC1)/C2=CC=CC=N2 + CC(C)C[C@H](NC(=O)[C@H](Cc1ccccc1)NC(=O)c1cnccn1)B(O)O [Bortezomib] (partner 0.002 µM)
How it was run: as §1

| Cell Line | relative viability ([1]; first compound 0.05 µM) | relative viability ([1]; first compound 0.1581 µM) | relative viability ([1]; first compound 0.5 µM) | relative viability ([1]; first compound 1.581 µM) | relative viability ([1]; first compound 5 µM) | relative viability ([2]; first compound 0.05 µM) | relative viability ([2]; first compound 0.1581 µM) | relative viability ([2]; first compound 0.5 µM) | relative viability ([2]; first compound 1.581 µM) | relative viability ([2]; first compound 5 µM) | relative viability ([3]; first compound 0.05 µM) | relative viability ([3]; first compound 0.1581 µM) | relative viability ([3]; first compound 0.5 µM) | relative viability ([3]; first compound 1.581 µM) | relative viability ([3]; first compound 5 µM) | relative viability ([4]; first compound 0.05 µM) | relative viability ([4]; first compound 0.1581 µM) | relative viability ([4]; first compound 0.5 µM) | relative viability ([4]; first compound 1.581 µM) | relative viability ([4]; first compound 5 µM) |
| --- | --- | --- | --- | --- | --- | --- | --- | --- | --- | --- | --- | --- | --- | --- | --- | --- | --- | --- | --- | --- |
| COR-L 105 | 0.353 | 0.358 | 0.349 | 0.316 | 0.318 | 0.178 | 0.254 | 0.243 | 0.176 | 0.185 | 0.227 | 0.247 | 0.259 | 0.167 | 0.265 | 0.287 | 0.339 | 0.297 | 0.253 | 0.244 |
| LK-2 | 0.0858 | 0.0843 | 0.0965 | 0.0618 | 0.112 | 0.141 | 0.187 | 0.17 | 0.121 | 0.151 | 0.16 | 0.147 | 0.158 | 0.188 | 0.131 |  |  |  |  |  |
| NCI-H727 | 0.346 | 0.393 | 0.363 | 0.314 | 0.439 | 0.204 | 0.24 | 0.236 | 0.242 | 0.274 | 0.249 | 0.337 | 0.294 | 0.346 | 0.34 | 0.171 | 0.214 | 0.156 | 0.174 | 0.184 |
| RERF-LC-KJ | 0.211 | 0.19 | 0.194 | 0.198 | 0.212 | 0.258 | 0.25 | 0.266 | 0.219 | 0.245 | 0.343 | 0.306 | 0.272 | 0.265 | 0.294 | 0.256 | 0.298 | 0.304 | 0.243 | 0.267 |
| NCI-H2023 | 0.0715 | 0.0684 | 0.0648 | 0.0566 | 0.086 | 0.0588 | 0.071 | 0.0685 | 0.0516 | 0.0624 | 0.067 | 0.0631 | 0.0621 | 0.0569 | 0.0694 | 0.096 | 0.0935 | 0.0847 | 0.0887 | 0.0763 |
| NCI-H322M | 0.345 | 0.382 | 0.488 | 0.379 | 0.439 | 0.183 | 0.309 | 0.263 | 0.247 | 0.282 | 0.314 | 0.327 | 0.289 | 0.263 | 0.309 | 0.176 | 0.295 | 0.296 | 0.287 | 0.324 |
| NCI-H1666 | 0.617 | 0.608 | 0.564 | 0.495 | 0.509 | 0.335 | 0.307 | 0.301 | 0.28 | 0.296 | 0.386 | 0.391 | 0.347 | 0.311 | 0.287 | 0.218 | 0.271 | 0.232 | 0.198 | 0.221 |
| NCI-H1648 | 0.258 | 0.301 | 0.322 | 0.352 | 0.337 |  |  |  |  |  |  |  |  |  |  |  |  |  |  |  |
| NCI-H2087 | 0.104 | 0.0945 | 0.12 | 0.118 | 0.0998 | 0.129 | 0.15 | 0.15 | 0.107 | 0.0833 | 0.116 | 0.0944 | 0.159 | 0.142 | 0.137 | 0.219 | 0.223 | 0.309 | 0.132 | 0.125 |
| LU99A | 0.14 | 0.312 | 0.129 | 0.127 | 0.121 | 0.131 | 0.16 | 0.114 | 0.106 | 0.155 | 0.15 | 0.116 | 0.152 | 0.164 | 0.148 | 0.135 | 0.108 | 0.165 | 0.124 | 0.147 |
| HCC-366 | 0.065 | 0.0358 | 0.0237 | 0.0228 | 0.026 | 0.0305 | 0.0271 | 0.0302 | 0.0382 | 0.031 |  |  |  |  |  | 0.0281 | 0.0189 | 0.0149 | 0.0223 | 0.02 |
| EKVX | 0.13 | 0.149 | 0.109 | 0.141 | 0.158 | 0.186 | 0.174 | 0.164 | 0.172 | 0.192 | 0.0986 | 0.123 | 0.114 | 0.119 | 0.143 | 0.138 | 0.129 | 0.103 | 0.141 | 0.144 |
| NCI-H522 | 0.432 | 0.376 | 0.284 | 0.381 | 0.412 |  | 0.332 | 0.494 |  | 0.416 | 0.353 | 0.375 | 0.369 | 0.412 | 0.49 |  |  |  |  |  |
| NCI-H1755 | 0.407 | 0.452 | 0.33 | 0.294 | 0.303 | 0.16 | 0.202 | 0.157 | 0.198 | 0.247 | 0.191 | 0.184 | 0.198 | 0.243 | 0.275 | 0.331 | 0.287 | 0.208 | 0.206 | 0.204 |
| NCI-H647 | 0.0551 | 0.0636 | 0.0877 | 0.0726 | 0.0666 | 0.0543 | 0.0651 | 0.0453 | 0.051 | 0.0532 | 0.0621 | 0.051 | 0.0851 | 0.0853 | 0.0804 | 0.165 | 0.105 | 0.0582 | 0.072 | 0.0851 |
| LC-2-ad | 0.224 | 0.196 | 0.192 | 0.172 | 0.202 | 0.191 | 0.187 | 0.143 | 0.165 | 0.166 | 0.269 | 0.273 | 0.252 | 0.219 | 0.247 | 0.115 | 0.106 | 0.114 | 0.104 | 0.0851 |
| NCI-H1793 | 0.191 | 0.162 | 0.146 | 0.155 | 0.174 | 0.113 | 0.145 | 0.151 | 0.121 | 0.145 | 0.214 | 0.142 | 0.103 | 0.119 | 0.141 |  |  |  |  |  |
| HCC-827 | 0.272 | 0.229 | 0.173 | 0.166 | 0.144 | 0.292 | 0.302 | 0.21 | 0.241 | 0.283 | 0.254 | 0.468 | 0.163 | 0.124 | 0.188 | 0.497 | 0.497 | 0.325 | 0.274 | 0.282 |

From the supplement of paper PMC10307832
